# Laboratory results as given in PMC3316592, “Functional Analysis of General Odorant Binding Protein 2 from the Meadow Moth, Loxostege sticticalis L. (Lepidoptera: Pyralidae)” (PLoS ONE, 2012).
# Where “and” joins values, the source holds several entries; their conditions need not be identical. Identical values can stand only once. Entries after “also recorded” stand apart in the source; their conditions may differ.
# Test system: LstiGOBP1
# Assay: not given
# Design: method as in earlier work
# Conditions: cited from earlier work
row,Molecule,binding to LstiGOBP1 (in words)
1,C=CC(O)CCCCC (stereo not shown) [1-Octen-3-ol],present an affinity
2,CCCCCCCCCCCCCCC [Pentadecane],bind
3,C=C(C)[C@H]1CC=C(C)CC1 [R-(+)-Limonene],do not show affinities
4,CCC/C=C/CO [Trans-2-hexen-1-ol],present an affinity
5,CC1=CC[C@H](C(C)C)C=C1 [α-Phellandrene],do not show affinities

# Biological target: recombinant LstiGOBP2 (Loxostege sticticalis, UniProt C6ZDA6)
# Sequence (C6ZDA6 entry or part of it): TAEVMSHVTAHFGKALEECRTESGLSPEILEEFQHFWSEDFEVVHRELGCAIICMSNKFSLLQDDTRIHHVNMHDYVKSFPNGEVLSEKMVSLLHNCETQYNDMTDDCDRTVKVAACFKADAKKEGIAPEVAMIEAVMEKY
# Assay: biochemical
# Assay type: binding
# Conditions: not given
# Procedure: Fluorescence spectra were recorded in a right angle configuration on a Lengguang 970 CRT spectrofluorimeter (Shanghai Jingmi, China) at room temperature using a 1-cm light path fluorimeter quartz cuvette. Slit widths of 10 nm were selected for both excitation and emission. The spectra data were processed using 970 CRT 2.0l software.
# N-phenyl-1-naphthylamine (1-NPN) was dissolved in methanol to yield a 1 mM stock solution. […] 1-NPN was excited at 337 nm and emission spectra were recorded between 350 and 600 nm. Spectra were recorded with high-speed scanning. All ligands used in competition experiments were dissolved in spectrophotometric-grade methanol. Binding data were collected in three independent measurements.
# Bound ligand was evaluated from the values of fluorescence intensity assuming that the protein was 100% active, with a stoichiometry of 1∶1 (protein∶ligand) at saturation. The K1-NPN values were estimated using Prism 5 (GraphPad Software, Inc.) by nonlinear regression for a unique site of binding. The curves were linearized using Scatchard plots.
Molecule,IC50 [µM],Ki [µM],Kd [µM]
"C=CC(C)(O)CCC=C(C)C (single isomer, unassigned; (-)) [(-)-Linalool]",28,16.5,–
CCCCCCC=O [1-Heptanal],24,–,–
CCCCCCCO [1-Heptanol],10.5,–,–
CCCCCC=O [1-Hexanal],12.5,7.3,–
CCCCCCO [1-Hexanol],11,–,–
"c1ccc(Nc2cccc3ccccc23)cc1 [1-NPN, N-phenyl-1-naphthylamine, reference compound]",–,–,~1.44
"CC(C)(C)c1ccc(O)c(C(C)(C)C)c1 [2,4-Di-tert-butylphenol]",20,11.8,–
CC=CCCCO [4-Hexen-1-ol],26,15.3,–
C=C1CC/C=C(\C)CC[C@@H]2[C@@H]1CC2(C)C [(-)-Trans-caryophyllene],> 50,–,–
c1ccc2scnc2c1 [Benzothiazole],22,12.9,–
CC12CCC(CC1=O)C2(C)C (stereo not shown) [Camphor],14,–,–
CCC/C=C\CO [Cis-2-hexen-1-ol],24,14.1,–
CC/C=C\CCO [Cis-3-hexen-1-ol],19,11.2,–
COC(=O)c1ccccc1O [Methyl salicylate],> 50,–,–
CCC/C=C/C=O [Trans-2-hexenal],10.5,6.2,–

# Same assay, conditions: IC50 (concentration of ligand halving the initial fluorescence intensity), protein 2 µM, 1-NPN probe, ligand titrated to 2–50 µM in methanol
row,Molecule,IC50
1,CC(=O)CCC=C(C)C [6-Methyl-5-hepten-2-one],28 µM
2,O=Cc1ccccc1 [Benzaldehyde],19 µM
3,O=C/C=C/c1ccccc1 [Cinnamaldehyde],17 µM
4,COC(=O)c1ccccc1C(=O)OC [Dimethyl phthalate],20 µM and 36 µM
5,CC(C)=CCC/C(C)=C/CO [Geraniol],22 µM
6,CC(=O)/C=C/C1C(C)=CCCC1(C)C (stereo not drawn) [α-ionone],8 µM
7,CC(=O)/C=C/C1=C(C)CCCC1(C)C [β-ionone],11 µM

# Same assay, conditions: Ki (relative dissociation constant), calculated from IC50: Ki = [IC50]/1+[1-NPN]/K1-NPN
row,Molecule,Ki
1,CC(=O)CCC=C(C)C [6-Methyl-5-hepten-2-one],16.5 µM
2,O=Cc1ccccc1 [Benzaldehyde],11.2 µM
3,O=C/C=C/c1ccccc1 [Cinnamaldehyde],10 µM
4,COC(=O)c1ccccc1C(=O)OC [Dimethyl phthalate],11.8 µM and 21.2 µM
5,CC(C)=CCC/C(C)=C/CO [Geraniol],12.9 µM
6,CC(=O)/C=C/C1C(C)=CCCC1(C)C (stereo not drawn) [α-ionone],4.7 µM
7,CC(=O)/C=C/C1=C(C)CCCC1(C)C [β-ionone],6.5 µM

# Same assay, conditions: at ligand concentration 20 µM; protein 2 µM, 1-NPN probe
row,Molecule,Int (fluorescence intensity as percent of the initial fluorescence) [%]
1,O=CCc1ccccc1 [Phenyl acetaldchyde],50
2,Iso-octanol,58

# Same assay, conditions: at ligand concentration 20 µM; protein 2 µM, 1-NPN probe; 20 µM
row,Molecule,Int (fluorescence intensity as percent of the initial fluorescence) [%]
1,COC(=O)c1ccccc1C(=O)OC [Dimethyl phthalate],64

# Same assay, conditions: at ligand concentration 20 µM; protein 2 µM, 1-NPN probe; read-out: Int (fluorescence intensity as percent of the initial fluorescence)
row,Molecule,activity at 20 µM [%]
1,"C=CC(C)(O)CCC=C(C)C (single isomer, unassigned; (-)) [(-)-Linalool]",53
2,CCCCCCCCC=O [1-Nonanal],66
3,CCCCCCCC=O [1-Octanal],52
4,CCCCC=O [1-Pentanal],46
5,CC=CCCCO [4-Hexen-1-ol],58
6,CC(C)=CCCC(C)O (stereo not shown) [6-Methyl-5-hepten-2-ol],63
7,CCC/C=C\CO [Cis-2-hexen-1-ol],59
8,CC/C=C\CCOC(C)=O [Cis-3-hexenyl acetate],57
9,C=CC(=C)CCC=C(C)C [Myrcene],56
10,CCC/C=C/COC(C)=O [Trans-2-hexenyl acetate],59
11,CC/C=C/CCCCCCCCCCOC(C)=O [Trans-11-tetradecen-1-yl acetate],48

# Same assay, conditions: calculated from IC50: Ki = [IC50]/1+[1-NPN]/K1-NPN; read-out: Ki (relative dissociation constant)
row,Molecule,Ki [µM]
1,CCCCCCC=O [1-Heptanal],14.1
2,CCCCCCCO [1-Heptanol],6.2
3,CCCCCCO [1-Hexanol],6.5
4,CCCCCCCCC=O [1-Nonanal],22.9
5,CCCCCCCC=O [1-Octanal],14.1
6,CCCCC=O [1-Pentanal],8.2
7,CC(C)=CCCC(C)O (stereo not shown) [6-Methyl-5-hepten-2-ol],16.5
8,CC12CCC(CC1=O)C2(C)C (stereo not shown) [Camphor],8.2
9,CC/C=C\CCOC(C)=O [Cis-3-hexenyl acetate],17.1
10,C=CC(=C)CCC=C(C)C [Myrcene],14.7
11,O=CCc1ccccc1 [Phenyl acetaldchyde],11.8
12,CCC/C=C/COC(C)=O [Trans-2-hexenyl acetate],16.5
13,CC/C=C/CCCCCCCCCCOC(C)=O [Trans-11-tetradecen-1-yl acetate],10.6
14,Iso-octanol,16.5

# Same assay, conditions: competitive displacement of 1-NPN
row,Molecule,binding to LstiGOBP2 (in words)
1,CCCCCC=O [1-Hexanal],high affinities
2,CCCCCCCCC=O [1-Nonanal],very weak binding affinity
3,CCCCC=O [1-Pentanal],high affinities
4,"CC(C)(C)c1ccc(O)c(C(C)(C)C)c1 [2,4-Di-tert-butylphenol]",high affinity
5,C=C1CC/C=C(\C)CC[C@@H]2[C@@H]1CC2(C)C [(-)-Trans-caryophyllene],very weak binding affinity
6,CC/C=C\CCO [Cis-3-hexen-1-ol],high binding affinities
7,C=C(C)[C@H]1CC=C(C)CC1 [R-(+)-Limonene],do not show affinities
8,CCC/C=C/C=O [Trans-2-hexenal],high binding affinities
9,CC/C=C/CCCCCCCCCCOC(C)=O [Trans-11-tetradecen-1-yl acetate],bind strongly; also recorded: high binding affinity
10,CC1=CC[C@H](C(C)C)C=C1 [α-Phellandrene],do not show affinities
11,CC(=O)/C=C/C1C(C)=CCCC1(C)C (stereo not drawn) [α-ionone],strongest affinities
12,CC(=O)/C=C/C1=C(C)CCCC1(C)C [β-ionone],strongest affinities

# Same assay, conditions: protein 2 µM, 1-NPN probe, ligand titrated to 2–50 µM in methanol; read-out: IC50 (concentration of ligand halving the initial fluorescence intensity)
row,Molecule,IC50 [µM]
1,CCCCCCCCC=O [1-Nonanal],39
2,CCCCCCCC=O [1-Octanal],24
3,CCCCC=O [1-Pentanal],14
4,CC(C)=CCCC(C)O (stereo not shown) [6-Methyl-5-hepten-2-ol],28
5,C=C1C2CCC(C2)C1(C)C (stereo not shown) [Camphene],23
6,CC/C=C\CCOC(C)=O [Cis-3-hexenyl acetate],29
7,C=CC(=C)CCC=C(C)C [Myrcene],25
8,O=CCc1ccccc1 [Phenyl acetaldchyde],20
9,CCC/C=C/COC(C)=O [Trans-2-hexenyl acetate],28
10,CC/C=C/CCCCCCCCCCOC(C)=O [Trans-11-tetradecen-1-yl acetate],18
11,Iso-octanol,28

# Same assay, conditions: read-out: Int (fluorescence intensity as percent of the initial fluorescence)
row,Molecule,activity at 20 µM [%]
1,CCCCCCC=O [1-Heptanal],52
2,CCCCCCCO [1-Heptanol],40
3,CCCCCC=O [1-Hexanal],36
4,CCCCCCO [1-Hexanol],42
5,"CC(C)(C)c1ccc(O)c(C(C)(C)C)c1 [2,4-Di-tert-butylphenol]",50
6,C=C1CC/C=C(\C)CC[C@@H]2[C@@H]1CC2(C)C [(-)-Trans-caryophyllene],86
7,c1ccc2scnc2c1 [Benzothiazole],52
8,C=C1C2CCC(C2)C1(C)C (stereo not shown) [Camphene],54
9,CC12CCC(CC1=O)C2(C)C (stereo not shown) [Camphor],41
10,CC/C=C\CCO [Cis-3-hexen-1-ol],49
11,COC(=O)c1ccccc1O [Methyl salicylate],83

# Same assay, conditions: read-out: Int (fluorescence intensity as percent of the initial fluorescence), at ligand concentration 20 µM; protein 2 µM, 1-NPN probe
row,Molecule,activity at 20 µM [%]
1,CC(=O)CCC=C(C)C [6-Methyl-5-hepten-2-one],64
2,O=Cc1ccccc1 [Benzaldehyde],48
3,O=C/C=C/c1ccccc1 [Cinnamaldehyde],45
4,COC(=O)c1ccccc1C(=O)OC [Dimethyl phthalate],50
5,CC(C)=CCC/C(C)=C/CO [Geraniol],54
6,CC(=O)/C=C/C1C(C)=CCCC1(C)C (stereo not drawn) [α-ionone],39
7,CC(=O)/C=C/C1=C(C)CCCC1(C)C [β-ionone],37

# Test system: L. sticticalis antennae
# Assay: Electroantennogram (EAG) recording
# Design: species or system Loxostege sticticalis
# Conditions: 10 mg/ml in hexane, adult antennae
# Procedure: Antennae of adult moths were excised at the base and immediately placed on an EAG Micromanipulator MP-15 (Syntech) platform for EAG. Antennae were attached to two electrode holders with non-drying clay (Spectra 360 Electrode Gel). […] Pure chemicals were diluted with hexane to a final concentration of 10 mg/ml. EAG signals were amplified, monitored, and analyzed with EAG-Pro software (Syntech). The preparation was held in a humidified air stream delivered by a Syntech stimulus controller (CS-55 model; Syntech) at 500 ml/min, to which a stimulus pulse of 40 ml/min was added for […]. Signals were recorded for 10 sec, beginning at 2 sec before the onset of the stimulus pulse. An aliquot (10 µl) of each stimulus was loaded onto a filter paper strip. After each sample was tested, hexane was tested as a control. EAG responses of at least three antennae were recorded.
row,Molecule,EAG response (in words)
1,C=CC(O)CCCCC (stereo not shown) [1-Octen-3-ol],strong responses; also recorded: intensive responses
2,"CC(C)(C)c1ccc(O)c(C(C)(C)C)c1 [2,4-Di-tert-butylphenol]",weak effects; also recorded: weak response
3,O=Cc1ccccc1 [Benzaldehyde],weak response
4,O=C/C=C/c1ccccc1 [Cinnamaldehyde],weak response
5,CC/C=C\CCO [Cis-3-hexen-1-ol],high EAG response
6,C=C(C)[C@H]1CC=C(C)CC1 [R-(+)-Limonene],strong responses
7,CCC/C=C/CO [Trans-2-hexen-1-ol],intensive responses
8,CCC/C=C/C=O [Trans-2-hexenal],high EAG response
9,CC1=CC[C@H](C(C)C)C=C1 [α-Phellandrene],strong responses
10,CC(=O)/C=C/C1C(C)=CCCC1(C)C (stereo not drawn) [α-ionone],weak effects; also recorded: failed to elicit a strong electrophysiological response
11,CC(=O)/C=C/C1=C(C)CCCC1(C)C [β-ionone],weak effects; also recorded: failed to elicit a strong electrophysiological response

# Same assay, conditions: 10 mg/ml in hexane, adult antennae; listed as E-2-hexeno1
row,Molecule,EAG response (in words)
1,CCC/C=C/CO [Trans-2-hexen-1-ol],strong responses

# Same assay, conditions: 10 mg/ml in hexane; highest EAG responses
row,Molecule,EAG depolarization [mV]
1,CCCCCCCO [1-Heptanol],−1.6
2,CCCCCCCC=O [1-Octanal],−1.6

# Same assay, conditions: male antennae, 10 mg/ml
row,Molecule,EAG response of the male antennae (in words)
1,CC/C=C/CCCCCCCCCCOC(C)=O [Trans-11-tetradecen-1-yl acetate],highest among all the volatiles tested

# Same assay, conditions: male vs female antennae
row,Molecule,EAG response difference between males and females
1,CC/C=C/CCCCCCCCCCOC(C)=O [Trans-11-tetradecen-1-yl acetate],significantly different
